Experimental data as given in patent US20150094321A1, “COMBINATION” (GlaxoSmithKline LLC, priority 2009, published 2015).
Read-outs that look alike come from different tables or passages of the source.

What was measured:
Test in all cases: Cell growth inhibition assay
BT-474-J4 = format: cell-based, human; conditions: BT-474-J4, breast, HER2+, PIK3CA K111N, single agent, read-out: IC50 Single Agent (mean +/- std)
Description: (§1) Human breast tumor lines. BT-474, HCC1419, HCC1937, HCC1954, HCC202, KPL-1, MDA-MB-157, MDA-MB-175-VII, MDA-MB-361, MDA-MB-453, SK-BR-3, SUM225PE, UACC893, and ZR-75-1; lung tumor line, CALU-3; and melanoma line, CHL-1, were from ATCC. Human breast tumor line JIMT-1 was from European Collection of Cell Cultures (UK). Human breast tumor lines SUM149PT, SUM190PT and SUM52PE were from Asterand. These lines were cultured in RPMI 1640 medium containing 10% fetal bovine serum (FBS). A head and neck tumor line, LICR LON HN5 (HN5), a gift from the Institute of Cancer Research, Surrey, U.K, was cultured in Dulbecco's modified Eagle medium (DMEM) containing 5% FBS; KPL-4 breast tumor cell line was kindly provided by Dr Junichi Kurebayashi (Kawasaki Medical School, Okayama, Japan) and cultured in DMEM containing 5% FBS. JIMT-1 is a line derived from a patient clinically resistant to trastuzumab (Herceptin®). BT-474-J4 is a single cell clone derived from a pool of BT-474 cells that were selected to grow in lapatinib to a concentration of 3 μM.
(§2) All cells were cultured for a minimum of 72 hours prior to cell plating. Cells were assayed in a 96-well tissue culture plate (NUNC 136102) of RPMI medium containing 10% FBS for all cells at 2,000 cells per well except KPL-4 and HN5 which were plated in DMEM containing 5% FBS at 500 cells per well. Approximately 24 hours after plating, cells were exposed to ten, two-fold or three-fold serial dilutions of compound or the combination of the two agents at a constant molar to molar ratio of 1:1 Compound A to Compound B in RPMI media containing 10% FBS or DMEM containing 5% FBS. Cells were incubated in the presence of compounds for 3 days. ATP levels were determined by adding Cell Titer Glo® (Promega) according to the manufacturer's protocol. Briefly, Cell Titer Glo® was added each plate, incubated for 20 minutes then luminescent signal was read on the SpectraMax L plate reader with a 0.5 sec integration time.
(§3) Inhibition of cell growth was estimated after treatment with compound or combination of compounds for three days and comparing the signal to cells treated with vehicle (DMSO). Cell growth was calculated relative to vehicle (DMSO) treated control wells. Concentration of compound that inhibits 50% of control cell growth (IC50) was interpolated using nonlinear regression with the equation, y=(A+(B−A)/(1+(C/x)̂D))), where A is the minimum response (ymin), B is the maximum response (ymax), C is the inflection point of the curve (EC50) and D is the Hill coefficient. […]

JIMT-1 = format: cell-based, human; conditions: for IC50: Homo sapiens, JimT-1, breast, HER2+, PIK3CA C420R, single agent, read-out: IC50 Single Agent (mean +/- std); for sensitivity as single agents: JIMT-1
Description: as §1, §2, §3

SUM225PE = format: cell-based, human; conditions: breast, HER2+, WT, single agent, read-out: IC50 Single Agent (mean +/- std)
Description: as §1, §2, §3

BT-474 = format: cell-based; conditions: Homo sapiens; BT-474, breast, HER2+, PIK3CA K111N; single agent; read-out: IC50 Single Agent (mean +/- std)
Description: as §1, §2, §3

HCC1419 = format: cell-based; conditions: Homo sapiens; HCC1419, breast, HER2+, WT; single agent; read-out: IC50 Single Agent (mean +/- std)
Description: as §1, §2, §3

HCC1937 = format: cell-based; conditions: Homo sapiens; HCC1937, breast, PTEN low; single agent; read-out: IC50 Single Agent (mean +/- std)
Description: as §1, §2, §3

HCC202 = format: cell-based; conditions: Homo sapiens; HCC202, breast, HER2+, PIK3CA E545K; single agent; read-out: IC50 Single Agent (mean +/- std)
Description: as §1, §2, §3

KPL-1 = format: cell-based; conditions: Homo sapiens; KPL-1, breast, PIK3CA E545K; single agent; read-out: IC50 Single Agent (mean +/- std)
Description: as §1, §2, §3

MDA-MB-157 = format: cell-based; conditions: Homo sapiens; MDA-MB-157, breast, WT; single agent; read-out: IC50 Single Agent (mean +/- std)
Description: as §1, §2, §3

SK-BR-3 = format: cell-based; conditions: Homo sapiens; SK-BR-3, breast, HER2+, WT; single agent; read-out: IC50 Single Agent (mean +/- std)
Description: as §1, §2, §3

Row | IC50 (BT-474-J4; Homo sapiens) [nM] | IC50 (BT-474) [nM] | IC50 (HCC1419) [nM] | IC50 (HCC1937) [nM] | IC50 (HCC202) [nM] | IC50 (MDA-MB-157) [nM] | IC50 (SK-BR-3) [nM] | IC50 (BT-474-J4) [nM] | SMILES | IC50 (JIMT-1) [nM] | sensitivity as single agents (JIMT-1) | IC50 (SUM225PE; Homo sapiens) [nM] | IC50 (KPL-1) [nM] | IC50 (SUM225PE) [nM]
1 | > 1000 | > 1000 | > 1000 | > 1000 | > 1000 | > 1000 | > 1000 |  | CC(=O)Nc1cccc(-n2c(=O)n(C3CC3)c(=O)c3c(Nc4ccc(I)cc4F)n(C)c(=O)c(C)c32)c1 [Compound A, N-{3-[3-cyclopropyl-5-(2-fluoro-4-iodo-phenylamino)-6,8-dimethyl-2,4,7-trioxo-3,4,6,7-tetrahydro-2H-pyrido[4,3-d]pyrimidin-1-yl]phenyl}acetamide] | > 1000 | not sensitive | > 1000 | > 1000 | 
2 | 271 | > 1000 | > 1000 | > 1000 | > 1000 | > 1000 | > 1000 | 217 | Cn1ncc(Cl)c1-c1cc(C(=O)N[C@H](CN)Cc2ccc(F)c(F)c2)oc1Cl [Compound B, N-{(1S)-2-amino-1-[(3,4-difluorophenyl)methyl]ethyl}-5-chloro-4-(4-chloro-1-methyl-1H-pyrazol-5-yl)-2-furancarboxamide] | > 1000 | not sensitive | < 1000 | > 1000 | 529
